ChEMBL document CHEMBL1201862, “PubChem BioAssay data set” (2004)
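Five compound concentrations were applied to cells in 96-well plates for 48 hours; endpoints were derived by simple linear interpolation of the resulting dose-response curve. GI50 marks 50% less growth.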 Active and inactive are the calls of the source. Cut-off read from the data, not from the text of the source: active = GI50 up to about 1.1 µM and inactive = higher.

Key:
Assay in all cases: NCI-60 cell line screen, 48 h
[1] = tested on: NCI-H460
[2] = tested on: CAKI-1
[3] = tested on: SNB-19
[4] = tested on: Malme-3M
[5] = tested on: K562
[6] = tested on: TK-10
[7] = tested on: NCI-H23
[8] = tested on: SNB-75
[9] = tested on: U-251
[10] = tested on: MDA-MB-231
[11] = tested on: HL-60
[12] = tested on: SK-MEL-28
[13] = tested on: A549
[14] = tested on: IGROV-1
[15] = tested on: SN12C
[16] = tested on: HCT-15
[17] = tested on: NCI-H522
[18] = tested on: UO-31
[19] = tested on: MDA-N
[20] = tested on: NCI/ADR-RES
[21] = tested on: OVCAR-4
[22] = tested on: EKVX
[23] = tested on: MCF7
[24] = tested on: MOLT-4
[25] = tested on: OVCAR-3
[26] = tested on: M14
[27] = tested on: T47D
[28] = tested on: Hs-578T
[29] = tested on: MDA-MB-435
[30] = tested on: COLO 205
[31] = tested on: SK-MEL-5
[32] = tested on: HOP-62
[33] = tested on: HOP-92
[34] = tested on: SR
[35] = tested on: OVCAR-8
[36] = tested on: SK-OV-3
[37] = tested on: RXF 393
[38] = tested on: UACC-257
[39] = tested on: PC-3
[40] = tested on: HT-29
[41] = tested on: SK-MEL-2
[42] = tested on: SF-539
[43] = tested on: CCRF-CEM
[44] = tested on: BT-549
[45] = tested on: SW-620
[46] = tested on: OVCAR-5
[47] = tested on: KM12
[48] = tested on: 786-0
[49] = tested on: RPMI-8226
[50] = tested on: LOX IMVI
[51] = tested on: HCC 2998
[52] = tested on: DU-145
[53] = tested on: SF-268
[54] = tested on: UACC-62
[55] = tested on: ACHN
[56] = tested on: HCT-116
[57] = tested on: SF-295
[58] = tested on: NCI-H226
[59] = tested on: A498

## c1ccc2c(c1)CCN2CCc1c[nH]c2ccccc12
[1]
  GI50: > 10 µM (inactive)
[2]
  GI50: > 10 µM (inactive)
[3]
  GI50: > 10 µM (inactive)
[4]
  GI50: > 10 µM (inactive)
[5]
  GI50: > 10 µM (inactive)
[6]
  GI50: > 10 µM (inactive)
[7]
  GI50: > 10 µM (inactive)
[8]
  GI50: > 10 µM (inactive)
[9]
  GI50: > 10 µM (inactive)
[10]
  GI50: > 10 µM (inactive)
[11]
  GI50: > 10 µM (inactive)
[12]
  GI50: > 10 µM (inactive)
[13]
  GI50: > 10 µM (inactive)
[14]
  GI50: > 10 µM (inactive)
[15]
  GI50: > 10 µM (inactive)
[16]
  GI50: > 10 µM
[17]
  GI50: > 10 µM (inactive)
[18]
  GI50: > 10 µM (inactive)
[19]
  GI50: > 10 µM (inactive)
[20]
  GI50: > 10 µM (inactive)
[21]
  GI50: > 10 µM (inactive)
[22]
  GI50: > 10 µM (inactive)
[23]
  GI50: > 10 µM (inactive)
[24]
  GI50: > 10 µM (inactive)
[25]
  GI50: > 10 µM (inactive)
[26]
  GI50: > 10 µM (inactive)
[27]
  GI50: > 10 µM (inactive)
[28]
  GI50: > 10 µM (inactive)
[29]
  GI50: > 10 µM (inactive)
[30]
  GI50: > 10 µM (inactive)
[31]
  GI50: > 10 µM (inactive)
[32]
  GI50: > 10 µM (inactive)
[33]
  GI50: > 10 µM (inactive)
[34]
  GI50: > 10 µM (inactive)
[35]
  GI50: > 10 µM (inactive)
[36]
  GI50: > 10 µM (inactive)
[37]
  GI50: > 10 µM (inactive)
[38]
  GI50: > 10 µM (inactive)
[39]
  GI50: > 10 µM (inactive)
[40]
  GI50: > 10 µM (inactive)
[41]
  GI50: > 10 µM (inactive)
[42]
  GI50: > 10 µM (inactive)
[43]
  GI50: > 10 µM (inactive)
[44]
  GI50: > 10 µM (inactive)
[45]
  GI50: > 10 µM (inactive)
[46]
  GI50: > 10 µM (inactive)
[47]
  GI50: > 10 µM (inactive)
[48]
  GI50: > 10 µM (inactive)
[49]
  GI50: > 10 µM (inactive)
[50]
  GI50: > 10 µM (inactive)
[51]
  GI50: > 10 µM (inactive)
[52]
  GI50: > 10 µM (inactive)
[53]
  GI50: > 10 µM (inactive)
[54]
  GI50: > 10 µM (inactive)
[55]
  GI50: > 10 µM (inactive)
[56]
  GI50: > 10 µM (inactive)
[57]
  GI50: > 10 µM (inactive)
[58]
  GI50: > 10 µM (inactive)

## Cc1csc2c1-n1cccc1C2=O
[1]
  GI50: > 100 µM (inactive)
[2]
  GI50: 65.8 µM (inactive)
[3]
  GI50: > 100 µM (inactive)
[4]
  GI50: > 100 µM (inactive)
[5]
  GI50: > 100 µM (inactive)
[6]
  GI50: > 100 µM (inactive)
[8]
  GI50: > 100 µM (inactive)
[9]
  GI50: > 100 µM (inactive)
[59]
  GI50: 36 µM (inactive)
[10]
  GI50: > 100 µM (inactive)
[12]
  GI50: > 100 µM (inactive)
[13]
  GI50: > 100 µM (inactive)
[14]
  GI50: > 100 µM (inactive)
[15]
  GI50: > 100 µM (inactive)
[16]
  GI50: > 100 µM
[17]
  GI50: > 100 µM (inactive)
[18]
  GI50: 43.3 µM (inactive)
[19]
  GI50: 99.1 µM (inactive)
[20]
  GI50: > 100 µM (inactive)
[21]
  GI50: > 100 µM (inactive)
[22]
  GI50: 64.3 µM (inactive)
[23]
  GI50: > 100 µM (inactive)
[24]
  GI50: > 100 µM (inactive)
[25]
  GI50: > 100 µM (inactive)
[26]
  GI50: > 100 µM (inactive)
[27]
  GI50: > 100 µM (inactive)
[28]
  GI50: > 100 µM (inactive)
[29]
  GI50: 67.3 µM (inactive)
[30]
  GI50: > 100 µM (inactive)
[31]
  GI50: > 100 µM (inactive)
[32]
  GI50: 53 µM (inactive)
[34]
  GI50: > 100 µM (inactive)
[35]
  GI50: > 100 µM (inactive)
[36]
  GI50: > 100 µM (inactive)
[37]
  GI50: 98.4 µM (inactive)
[38]
  GI50: > 100 µM (inactive)
[39]
  GI50: > 100 µM (inactive)
[40]
  GI50: > 100 µM (inactive)
[41]
  GI50: > 100 µM (inactive)
[43]
  GI50: > 100 µM (inactive)
[44]
  GI50: > 100 µM (inactive)
[45]
  GI50: > 100 µM (inactive)
[46]
  GI50: > 100 µM (inactive)
[47]
  GI50: > 100 µM (inactive)
[48]
  GI50: > 100 µM (inactive)
[49]
  GI50: > 100 µM (inactive)
[50]
  GI50: > 100 µM (inactive)
[51]
  GI50: > 100 µM (inactive)
[52]
  GI50: > 100 µM (inactive)
[53]
  GI50: > 100 µM (inactive)
[54]
  GI50: > 100 µM (inactive)
[55]
  GI50: > 100 µM (inactive)
[56]
  GI50: > 100 µM (inactive)
[57]
  GI50: > 100 µM (inactive)
[58]
  GI50: > 100 µM (inactive)

## COc1cc2c(cc1OCCCCOc1cc3c(cc1OC)C(=O)N1CCC[C@H]1C(=O)N3)N=C[C@@H]1CCCN1C2=O
[1]
  GI50: 15.8 µM (inactive)
[2]
  GI50: 11.6 µM (inactive)
[3]
  GI50: 8.18 µM (inactive)
[4]
  GI50: 9.79 µM (inactive)
[5]
  GI50: 2.28 µM (inactive)
[6]
  GI50: 12.9 µM (inactive)
[7]
  GI50: 12.8 µM (inactive)
[8]
  GI50: 4.12 µM (inactive)
[9]
  GI50: 3.93 µM (inactive)
[59]
  GI50: 6.71 µM (inactive)
[10]
  GI50: 3.11 µM (inactive)
[11]
  GI50: 9.18 µM (inactive)
[12]
  GI50: 14.3 µM (inactive)
[13]
  GI50: 18.3 µM (inactive)
[14]
  GI50: 8.57 µM (inactive)
[15]
  GI50: 9.75 µM (inactive)
[16]
  GI50: 12.2 µM
[17]
  GI50: 1.12 µM (inactive)
[18]
  GI50: 14.8 µM (inactive)
[19]
  GI50: 7.28 µM (inactive)
[20]
  GI50: 13.4 µM (inactive)
[21]
  GI50: 13.1 µM (inactive)
[22]
  GI50: 12.5 µM (inactive)
[23]
  GI50: 2.72 µM (inactive)
[24]
  GI50: 2.27 µM (inactive)
[25]
  GI50: 11.5 µM (inactive)
[26]
  GI50: 12.9 µM (inactive)
[27]
  GI50: 5.52 µM (inactive)
[28]
  GI50: 10.3 µM (inactive)
[29]
  GI50: 4.2 µM (inactive)
[30]
  GI50: 2.55 µM (inactive)
[31]
  GI50: 4 µM (inactive)
[32]
  GI50: 10.9 µM (inactive)
[34]
  GI50: 2.17 µM (inactive)
[35]
  GI50: 14.7 µM (inactive)
[37]
  GI50: 3.59 µM (inactive)
[38]
  GI50: 14.9 µM (inactive)
[39]
  GI50: 6.05 µM (inactive)
[40]
  GI50: 16.6 µM (inactive)
[41]
  GI50: 5.57 µM (inactive)
[44]
  GI50: 4.44 µM (inactive)
[45]
  GI50: 3.29 µM (inactive)
[46]
  GI50: 13.1 µM (inactive)
[47]
  GI50: 5.02 µM (inactive)
[48]
  GI50: 13.2 µM (inactive)
[49]
  GI50: 1.57 µM (inactive)
[50]
  GI50: 1.99 µM (inactive)
[51]
  GI50: 11.7 µM (inactive)
[52]
  GI50: 17.2 µM (inactive)
[53]
  GI50: 3.82 µM (inactive)
[54]
  GI50: 3.35 µM (inactive)
[55]
  GI50: 14.7 µM (inactive)
[56]
  GI50: 16.8 µM (inactive)
[57]
  GI50: 12.5 µM (inactive)
[58]
  GI50: 13.5 µM (inactive)
